Literature values as cited in article PMC9516332 (Frontiers in Oncology, 2022).
Where two headings read alike, the source gives them in different places.

Tests used:
Conditions in all cases: cited from earlier work
[1] = molecular target: panel of 255 wild-type kinases (Homo sapiens, UniProt P06241)
[2] = molecular target: panel of 255 wild-type kinases (Homo sapiens, UniProt P17612)
[3] = molecular target: panel of 255 wild-type kinases (Homo sapiens, UniProt P22612)
[4] = molecular target: panel of 255 wild-type kinases (Homo sapiens, UniProt P23443)
[5] = molecular target: panel of 255 wild-type kinases (Homo sapiens, UniProt P27448)
[6] = molecular target: panel of 255 wild-type kinases (Homo sapiens, UniProt P49841)
[7] = molecular target: T1, panel of 255 wild-type kinases (Homo sapiens, UniProt P51955)
T1 sequence (P51955 1-445): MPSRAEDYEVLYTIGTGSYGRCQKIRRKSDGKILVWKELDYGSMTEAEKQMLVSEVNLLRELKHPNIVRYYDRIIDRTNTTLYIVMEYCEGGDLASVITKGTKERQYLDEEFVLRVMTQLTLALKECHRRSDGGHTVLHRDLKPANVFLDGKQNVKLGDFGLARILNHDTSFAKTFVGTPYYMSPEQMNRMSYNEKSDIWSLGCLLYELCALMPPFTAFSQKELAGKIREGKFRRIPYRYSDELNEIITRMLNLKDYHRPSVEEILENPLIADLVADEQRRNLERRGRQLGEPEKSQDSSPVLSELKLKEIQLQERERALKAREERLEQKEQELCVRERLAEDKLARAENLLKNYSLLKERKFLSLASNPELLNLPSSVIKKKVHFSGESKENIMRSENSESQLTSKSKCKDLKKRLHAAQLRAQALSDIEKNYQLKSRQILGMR

[8] = molecular target: panel of 255 wild-type kinases (Homo sapiens, UniProt Q04759)
[9] = molecular target: T2, panel of 255 wild-type kinases (Homo sapiens, UniProt Q13043)
T2 sequence (Q13043 1-487): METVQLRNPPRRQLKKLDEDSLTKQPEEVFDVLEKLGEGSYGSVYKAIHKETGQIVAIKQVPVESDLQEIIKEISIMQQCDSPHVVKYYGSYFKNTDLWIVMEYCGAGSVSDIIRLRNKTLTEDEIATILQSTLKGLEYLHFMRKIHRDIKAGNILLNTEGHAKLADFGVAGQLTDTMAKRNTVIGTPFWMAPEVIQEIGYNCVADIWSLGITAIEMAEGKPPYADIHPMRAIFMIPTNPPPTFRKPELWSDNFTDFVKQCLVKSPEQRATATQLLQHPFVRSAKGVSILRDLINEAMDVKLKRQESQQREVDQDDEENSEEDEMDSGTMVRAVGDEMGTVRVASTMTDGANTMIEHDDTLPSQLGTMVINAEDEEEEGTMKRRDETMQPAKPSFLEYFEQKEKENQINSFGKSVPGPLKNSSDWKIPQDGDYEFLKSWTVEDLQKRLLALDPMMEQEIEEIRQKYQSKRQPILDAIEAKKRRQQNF

[10] = molecular target: panel of 255 wild-type kinases (Homo sapiens, UniProt Q9H4B4)
[11] = kinase FYN [isoform a], 1 µmol/L single concentration, ref DOI: 10.1158/1535-7163.MCT-18-0877
[12] = kinase PKACα, 1 µmol/L single concentration, ref DOI: 10.1158/1535-7163.MCT-18-0877
[13] = kinase PKACγ, 1 µmol/L single concentration, ref DOI: 10.1158/1535-7163.MCT-18-0877
[14] = p70S6K, 1 µmol/L single concentration, ref DOI: 10.1158/1535-7163.MCT-18-0877
[15] = MARK3, 1 µmol/L single concentration, ref DOI: 10.1158/1535-7163.MCT-18-0877
[16] = kinase GSK3β, 1 µmol/L single concentration, ref DOI: 10.1158/1535-7163.MCT-18-0877
[17] = NEK2, 1 µmol/L single concentration, ref DOI: 10.1158/1535-7163.MCT-18-0877
[18] = kinase PKCθ, 1 µmol/L single concentration, ref DOI: 10.1158/1535-7163.MCT-18-0877
[19] = MST1, 1 µmol/L single concentration, ref DOI: 10.1158/1535-7163.MCT-18-0877
[20] = kinase PLK3, 1 µmol/L single concentration, ref DOI: 10.1158/1535-7163.MCT-18-0877
[21] = MARK3, 1 µmol/L single concentration, ref DOI: 10.1371/journal.pone.0092146

SMILES | %-inhibition at 1 µmol/L, FYN [isoform a] [1, 11] [%] | %-inhibition at 1 µmol/L, PKACα [2, 12] [%] | %-inhibition at 1 µmol/L, PKACγ [3, 13] [%] | %-inhibition, p70S6K [4, 14] [%] | %-inhibition, MARK3 [5, 15] [%] | %-inhibition at 1 µmol/L, GSK3β [6, 16] [%] | %-inhibition, NEK2 [7, 17] [%] | %-inhibition at 1 µmol/L, PKCθ [8, 18] [%] | %-inhibition, MST1 [9, 19] [%] | %-inhibition at 1 µmol/L, PLK3 [10, 20] [%] | %-inhibition, MARK3 [5, 21] [%] | other results
O=C(c1ccc(F)c(F)c1Nc1ccc(I)cc1F)N1CC(O)([C@@H]2CCCCN2)C1 [cobimetinib] | 0.258 | -10 | 4.37 | 19 | -1.51 | -2.44 | 6.62 | -4.34 | -9 | 4 |  | 
CC(C)(C)c1nc(-c2cccc(NS(=O)(=O)c3c(F)cccc3F)c2F)c(-c2ccnc(N)n2)s1 [dabrafenib] |  |  |  |  |  |  |  |  |  |  | 4 | 
Cc1cc(Nc2ncc(Cl)c(Nc3ccccc3S(=O)(=O)C(C)C)n2)c(OC(C)C)cc1C1CCNCC1 [ceritinib] | 4 | -8 | 1.46 | 16 | 10 | -2.5 | 2 | -0.708 | 17 | -0.156 |  | 
CCc1cc2c(cc1N1CCC(N3CCOCC3)CC1)C(C)(C)c1[nH]c3cc(C#N)ccc3c1C2=O [alectinib] | 15 | 5 | 3 | 2.73 | 9 | 2.37 | 3.37 | -2 | 10 | -4 |  | 
CCCS(=O)(=O)Nc1ccc(F)c(C(=O)c2c[nH]c3ncc(-c4ccc(Cl)cc4)cc23)c1F [vemurafenib] |  |  |  |  |  |  |  |  |  |  | -0.226 | %-inhibition at 1 µmol/L, FYN [isoform a] ([1]; kinase FYN [isoform a], 1 µmol/L single concentration, ref DOI: 10.1371/journal.pone.0092146): 81%; %-inhibition at 1 µmol/L, PKACα ([2]; kinase PKACα, 1 µmol/L single concentration, ref DOI: 10.1371/journal.pone.0092146): -4%; %-inhibition at 1 µmol/L, PKACγ ([3]; kinase PKACγ, 1 µmol/L single concentration, ref DOI: 10.1371/journal.pone.0092146): -3%; %-inhibition, p70S6K ([4]; p70S6K, 1 µmol/L single concentration, ref DOI: 10.1371/journal.pone.0092146): 9%; %-inhibition at 1 µmol/L, GSK3β ([6]; kinase GSK3β, 1 µmol/L single concentration, ref DOI: 10.1371/journal.pone.0092146): 8%; %-inhibition, NEK2 ([7]; NEK2, 1 µmol/L single concentration, ref DOI: 10.1371/journal.pone.0092146): -1%; %-inhibition at 1 µmol/L, PKCθ ([8]; kinase PKCθ, 1 µmol/L single concentration, ref DOI: 10.1371/journal.pone.0092146): -3%; %-inhibition, MST1 ([9]; MST1, 1 µmol/L single concentration, ref DOI: 10.1371/journal.pone.0092146): 51%; %-inhibition at 1 µmol/L, PLK3 ([10]; kinase PLK3, 1 µmol/L single concentration, ref DOI: 10.1371/journal.pone.0092146): -2.83%
COc1cc(N2CCC(N3CCN(C)CC3)CC2)ccc1Nc1ncc(Cl)c(Nc2ccccc2P(C)(C)=O)n1 [brigatinib] |  |  |  |  |  |  |  |  |  |  |  | %-inhibition at 1 µmol/L, FYN [isoform a] [1]: 69%; %-inhibition at 1 µmol/L, PKACα [2]: 17%; %-inhibition at 1 µmol/L, PKACγ [3]: 9%; %-inhibition, p70S6K [4]: 33%; %-inhibition, MARK3 [5]: 99%; %-inhibition at 1 µmol/L, GSK3β [6]: -1.81%; %-inhibition, NEK2 [7]: 5.7%; %-inhibition at 1 µmol/L, PKCθ [8]: 29%; %-inhibition, MST1 [9]: 71%; %-inhibition at 1 µmol/L, PLK3 [10]: -2.57%
